Consider 1 substance from US20240336661A1, “PEPTIDES DERIVED FROM RUMINOCOCCUS TORQUES” (University of Copenhagen, priority 2021, published 2024).

For test [1], the system named is murine inguinal white adipocytes. The test is described as follows: Thermogenesis gene expression in murine inguinal adipocytes (q-PCR). To be noted: mouse inguinal preadipocytes, 15 nM every other day, 6 days. In kind it is cell-based, mouse. The procedure: (§1) FIG. 9. Exposure of recombinant RUCILP2 to human visceral white pre-adipocytes or murine inguinal white adipocytes causes up-regulation of the expression of genes involved in thermogenesis/browning. Upper panel: mRNA expression level of adipocyte differentiation marker genes including Ucp1, Pparγ1, Dio2, and Cox2 and brown adipocyte-selective genes including Cpt1b and Ebf2 on human white preadipocytes (HWP). Human white preadipocytes were cultured until 80% confluent and switched into differentiation media (with 0.3 ml/ml fetal calf serum, 8 ug/ml d-biotin, 0.5 ug/ml insulin, 400 ng/ml dexamethasone). The differentiation process to mature adipocytes was completed after 12-14 days. The treatment of RUCILP2 started from the third day of differentiation. Cells were harvested after 14 days of differentiation and the gene expressions were quantified by q-PCR. […] Statistical significance was determined by unpaired two-tailed Student's t test. *, p<0.05 vs 0 nM RUCILP2.
(§2) FIG. 28. […] Cells were harvested after 14 days of differentiation and the indicated genes were quantified by q-PCR. […] Cells were harvested after 6 days of differentiation and thermogenesis gene were quantified by q-PCR. […] Cells were harvested after 4 days of differentiation and expression of myogenesis genes were quantified by q-PCR. […] Statistical significance was determined by unpaired two-tailed Student's t test, *, p<0.05 […]

Test [2] relates to human visceral white pre-adipocytes. As to the kind of experiment: Thermogenesis/browning gene expression in human visceral white pre-adipocytes (q-PCR). To be noted: 15 nM, 14 days of differentiation. In kind it is cell-based. How it is done:
as §1, §2

Test [3] relates to rat insulinoma INS-1 cells. The test is described as follows: Insulin release from INS-1 cells (ELISA). The test is classed as cell-based. To be noted: 15 nM, 12 hours. The procedure: FIG. 30. Insulin release from the immortalized rat insulinoma INS-1 cells is increased following 21-AABP2 stimulation. INS-1 cells (832/13, ThermoFisher) were grown in RPM 1640 medium until a confluency of 70% was achieved and switched to RPM 1640 medium supplied with 15 nM of 21-AABP2 and incubated for 12 hours. The insulin concentration in the supernatant of cell culture medium was measured by MSD rat/mouse insulin ELISA kit. Data are presented as mean+/−SEM of one representative experiment done in biological triplicate. Statistical significance was determined by unpaired two-tailed Student's t test, *, p<0.05.
INS-1 cells were grown in RPMI 1640 medium (11875093, ThermoFisher Scientific) until a confluency of 70% was achieved and switched to RPMI 1640 medium supplied with 15 nM of 21-AABP2 and incubated for 12 hours. The insulin concentration in supernatant of cell culture medium was measured by MSD rat/mouse insulin ELISA kit (Merck Millipore).
On the technique in general: An ELISA detects its analyte on a solid surface through an enzyme-linked reagent.

The next test deals with murine C2C12 myoblasts. The test is described as follows: Myotube formation and myogenesis gene expression in C2C12 myoblasts. In kind it is cell-based, mouse. The procedure:
FIG. 12. […] The C2C12 myotubes were treated with indicated doses of RUCILP2 overnight and myotube images were collected at magnification, ×10.
FIG. 28. […] White preadipocytes from human visceral fat (C-12732, PromoCell) were cultured until 80% confluent and switched into differentiation media (with 0.3 ml/ml of fetal calf serum (FCS), 8 ug/ml of d-biotin, 0.5ug/ml of insulin, 400 ng/ml of dexamethasone) in the presence of 15 nM of 21-AABP2. The differentiation process to mature adipocytes was completed after 14 days. Cells were harvested after 14 days of differentiation and the indicated genes were quantified by q-PCR. Inguinal fat tissues from 6-week-old wild-type C57BL/6J female mice were dissected and washed with PBS, minced and digested for 1 hour at 37° C. in PBS containing 10 mM CaCl2, 2.4 U/ml dispase II (Roche) and 10 mg/ml collagenase D (Roche). After adding warm DMEM/F12 (1:1) with 10% FCS, digested tissue was filtered through a […] cell strainer and centrifuged at 600×g for 10 minutes. Pellet was resuspended by 40 ml DMEM/F12 (1:1) with 10% FCS and filtered through a […] cell strainer followed by centrifugation at 600×g for 10 minutes. Pelleted inguinal stromal vascular cells were grown to confluence and split onto 12-well plates. The cells were induced to differentiate by treatment with […], 0.5 mM isobutyl methyl xanthine for 2 days. After that, cells were maintained in […] for 4 days with medium change every other day. The cells were treated with 15 nM of 21-AABP2 every other day during 6 days of differentiation. Cells were harvested after 6 days of differentiation and thermogenesis gene were quantified by q-PCR. C2C12 myoblasts (CRL-1772, ATCC) were cultured until 80% confluent and switched into differentiation media (with 2% horse serum). The treatment with 21-AABP2 started from the second day of differentiation. Cells were harvested after 4 days of differentiation and expression of myogenesis genes were quantified by q-PCR. Data are presented as mean+/−SEM of one representative experiment done in biological triplicates. Statistical significance was determined by unpaired two-tailed Student's t test, *, p<0.05
FIG. 29. […] Representative images of myoblasts (CRL-1772, ATCC) at 24h of differentiation in the presence of phosphate buffered saline (PBS, blank) or 21-AABP2 (15 nM). Presented images were from one representative experiment done in biological triplicates.
C2C12 cells were seeded on 12-well plates under DMEM/F-12 medium (Dulbecco's Modified Eagle Medium/Nutrient Mixture F-12, Fisher Scientific, #11524436), supplemented with 10% FBS (Fetal Bovine Serum, Fisher Scientific, #11550356) and 1% Penicillin-Streptomycin (Fisher Scientific, #11548876). Cell cultures were maintained in a humidified chamber with 5% CO2 at 37° C., and culture media were changed every 2-3 days.
At approximately 80% confluence, 10% fetal bovine serum was replaced with 2% horse serum to induce C2C12 myoblast cells to differentiate into myotubes. Twenty-four hours later (day 1 of the differentiation), the cells were treated with recombinant RUCILP2 or commercial recombinant irisin (Sigma, #SRP8039-10UG and Phoenix pharmaceuticals, #067-29A) or saline. For integrin inhibitor treatment, cells were treated with 10 μM of CycloRGDyK (Selleckchem, #S7844) for 10 minutes and washed with PBS before treated with recombinant RUCILP2 or commercial recombinant irisin or saline. At day three, the cells were refreshed with the same media as day one. After treatments for six hours on day 3, C2C12 cells were harvested for qRT-PCR analysis.
C2C12 myoblasts were cultured until 80% confluent and switched into differentiation media (with 2% horse serum). The treatment with 21-AABP2 started from the second day of differentiation. Representative images of the formed myotubes at 24h of differentiation in the presence of PBS (blank) or 21-AABP2 (15 nM) were captured. […]

In the case of “21-AABP2: 21 amino acid trypsin cleaved fragment of RUCILP2, made recombinantly in E. coli (AETTYFVEVTAVDAAGNESVK; Ruminococcus torques)”, the “expression of key genes regulating thermogenesis” value in test [1] is recorded as “induces expression”. Also, in test [2], the “expression of genes involved in thermogenesis/browning” value is on record as “promotes expression”. Besides, the insulin release entry in test [3] is “increased”. Moreover, the myotube development result in the test with murine C2C12 myoblasts (C2C12, 15 nM, 24h of differentiation) is given as “increases myotube development”. The “expression of genes involved in myogenesis (Mymk, Caveolin-3)” value with murine C2C12 myoblasts (C2C12, harvested after 4 days of differentiation) is recorded as “stimulates expression”.
